Data published in article PMC8587047, “Synthesis and Biological Evaluation of Harmirins, Novel Harmine–Coumarin Hybrids as Potential Anticancer Agents” (Molecules, 2021).

Tests used:
SW620 = assay: MTT cytotoxicity assay, SW620; type: cell-based; settings: Homo sapiens, SW-620; MTT, 72 h, mean ± SD; read-out: IC50 SW620
Excerpt: (§1) We selected four different cancer cell lines for antiproliferative screening in vitro, which we believed would provide sufficient data on the anticancer potential of the prepared harmirins (hepatocellular carcinoma—HepG2, colorectal adenocarcinoma, Dukes’ type C—SW620, colorectal carcinoma—HCT116, and breast adenocarcinoma—MCF-7). Additionally, we included one non-cancer cell line (embryonic kidney—HEK293T) to evaluate harmirins’ selectivity. The commonly used anticancer drug 5-FU and harmine were used as positive controls. Pre-screening was performed using 50 µM of the tested compound. Only compounds that led to more than 50% reduction in mitochondrial metabolic activity at 50 µM concentration were selected for further analysis. The selectivity index (SI) for each harmirin was calculated as a fractional ratio between the IC50 values for HEK293T and the cancer cell line MCF-7 or HCT116 since these two cell lines were the most susceptible to harmirins.
(§2) The experiments were carried out on five human cell lines purchased from American Type Culture Collection (ATCC, PO BOX 1549, manassas, VA 20108, USA): HepG2 (hepatocellular carcinoma; ATCC® HB-8065™), SW620 (colorectal adenocarcinoma; ATCC® CCL-227™), HCT116 (colorectal carcinoma ATCC® CCL-247™), MCF-7 (breast adenocarcinoma, ATCC® HTB-22™), and HEK293T (embryonic kidney cells; ATCC® CRL-3216™). All cell lines were cultured as monolayers and maintained in Dulbecco’s modified Eagle medium (DMEM) (Capricorn Scientific, USA), supplemented with 10% fetal bovine serum (FBS) (Capricorn Scientific, USA), 100 U/mL penicillin, and 100 µg/mL streptomycin (Capricorn Scientific, USA) in a humidified atmosphere with 5% CO2 at 37 °C. Cells were seeded in 96-well plates (Corning, Durham, NC, USA) at 5000–7000 cells per well (depending on the cell doubling time of a specific cell line) in 0.1 mL media and cultured for 24 h. The next day, the medium was aspirated, and cells were treated for 72 h. Only the compounds that led to more than a 50% reduction in mitochondrial metabolic activity at a concentration of 50 µM were selected for further analysis. The following concentrations of selected compounds were used: 25, 10, 5, and 1 µM. Working dilutions were freshly prepared on the day of the testing. A fresh growth medium was added to untreated control cells, which were defined as 100% viable. DMSO (0.13%) in DMEM was considered a negative control. 5-Fluorouracil (5-FU) and harmine were used as positive controls. At the end of treatment, media was removed, and cells were incubated for 1 h with 0.5 mg/mL MTT (Abcam, Cambridge, MA, USA) dissolved in serum-deprived DMEM. The absorbance was directly proportional to cell viability. The MTT-containing media was then removed, and 0.1 mL isopropanol was added per well to lyse cells and dissolve formazan. The optical density was measured at 570 nm using a microplate reader (VICTOR3, PerkinElmer). Each test point was performed in triplicate. The IC50 values (concentration required to decrease viability by 50%) were calculated by using nonlinear regression on the sigmoidal dose–response plots and are expressed as mean ± SD.

HepG2 = assay: MTT cytotoxicity assay, HepG2; type: cell-based; settings: Homo sapiens, HepG2; MTT, 72 h, mean ± SD; read-out: IC50 HepG2
Excerpt: as §1, §2

HEK293T = assay: MTT cytotoxicity assay, HEK293T (non-cancer); type: cell-based, human; settings: for IC50: Homo sapiens, HEK-293T, MTT, 72 h, mean ± SD, non-cancer cell line, read-out: IC50 Hek293T
Excerpt: as §1, §2

MCF-7 = assay: MTT cytotoxicity assay, MCF-7; type: cell-based, human; settings: for IC50: Homo sapiens, MCF7, MTT, 72 h, mean ± SD, read-out: IC50 MCF-7; for SI (MCF-7): ratio IC50 HEK293T / IC50 MCF-7; for activity against MCF-7, fold stronger than 5-FU: compared with 5-FU IC50; for activity against MCF-7, fold higher than harmine: compared with harmine IC50
Excerpt: as §1, §2

HCT116 = assay: MTT cytotoxicity assay, HCT116; type: cell-based, human; settings: for IC50: Homo sapiens, HCT-116, MTT, 72 h, mean ± SD, read-out: IC50 HCT116; for SI (HCT116): ratio IC50 HEK293T / IC50 HCT116
Excerpt: as §1, §2

| Structure (SMILES) | melting point | IC50 (SW620) [µM] | IC50 (HepG2) [µM] | IC50 (HEK293T) [µM] | IC50 (MCF-7) [µM] | SI (MCF-7) (MCF-7) | IC50 (HCT116) [µM] | SI (HCT116) (HCT116) | activity against MCF-7, fold stronger than 5-FU (MCF-7) | activity against MCF-7, fold higher than harmine (MCF-7) | SIs (selectivity towards cancer cells in comparison to HEK293T) (HEK293T; cancer cell line not specified (MCF-7 or HCT116)) |
| --- | --- | --- | --- | --- | --- | --- | --- | --- | --- | --- | --- |
| O=c1cc(OCc2cn(Cc3nccc4c3[nH]c3ccccc34)nn2)c2ccccc2o1 [4a, 4-((1-((9H-Pyrido[3,4-b]indol-1-yl)methyl)-1H-1,2,3-triazol-4-yl)methoxy)-2H-chromen-2-one] | 260.5 to 264 °C (dec.) | > 50 | 29.5 ± 3.5 | > 50 | > 50 | >1 | > 50 | >1 | – | – | – |
| Cc1nccc2c1[nH]c1ccc(OCc3cn(-c4cc(=O)oc5ccc(F)cc45)nn3)cc12 [11d, 6-Fluoro-4-(4-(((1-methyl-9H-pyrido[3,4-b]indol-6-yl)oxy)methyl)-1H-1,2,3-triazol-1-yl)-2H-chromen-2-one] | 224.5 to 225.5 °C (dec.) | 12.7 ± 1.8 | 14.2 ± 0.4 | 6.9 ± 0.6 | 1.9 ± 0.2 | – | 2.7 ± 0.4 | – | 9–13 fold | 5–7 fold | – |
| Cc1ccc2oc(=O)cc(OCc3cn(Cc4cc5c([nH]c6ccccc65)c(C)n4)nn3)c2c1 [5b, 6-Methyl-4-((1-((1-methyl-9H-pyrido[3,4-b]indol-3-yl)methyl)-1H-1,2,3-triazol-4-yl)methoxy)-2H-chromen-2-one] | 263 to 267.5 °C (dec.) | > 50 | 16.8 ± 1.4 | 27.3 ± 2.1 | > 50 | <0.6 | 3.2 ± 0.5 | 8.6 | – | – | > 7.2 |
| Cc1nc(Cn2cc(COc3cc(=O)oc4ccc(Cl)cc34)nn2)cc2c1[nH]c1ccccc12 [5c, 6-Chloro-4-((1-((1-methyl-9H-pyrido[3,4-b]indol-3-yl)methyl)-1H-1,2,3-triazol-4-yl)methoxy)-2H-chromen-2-one] | 254 to 257.5 °C (dec.) | > 50 | 18.5 ± 2.3 | 8.5 ± 0.3 | 15 ± 1.3 | 0.6 | 7.1 ± 0.7 | 1.2 | – | – | – |
| Cc1ccc2oc(=O)cc(-n3cc(COc4ccc5[nH]c6c(C)nccc6c5c4)nn3)c2c1 [11b, 6-Methyl-4-(4-(((1-methyl-9H-pyrido[3,4-b]indol-6-yl)oxy)methyl)-1H-1,2,3-triazol-1-yl)-2H-chromen-2-one] | 235 to 242 °C (dec.) | > 50 | 13.6 ± 0.8 | 21.3 ± 4.1 | 10.4 ± 0.8 | 2 | > 50 | <0.4 | – | – | – |
| O=c1cc(OCc2cn(Cc3nccc4c3[nH]c3ccccc34)nn2)c2cc(Cl)ccc2o1 [4c, 4-((1-((9H-Pyrido[3,4-b]indol-1-yl)methyl)-1H-1,2,3-triazol-4-yl)methoxy)-6-chloro-2H-chromen-2-one] | 263.5 to 265 °C (dec.) | > 50 | > 50 | > 50 | 39.1 ± 3.6 | >1.3 | > 50 | >1 | – | – | – |
| Cc1ccc2oc(=O)cc(OCc3cn(Cc4nccc5c4[nH]c4ccccc45)nn3)c2c1 [4b, 4-((1-((9H-Pyrido[3,4-b]indol-1-yl)methyl)-1H-1,2,3-triazol-4-yl)methoxy)-6-methyl-2H-chromen-2-one] | 246.5 to 251 °C (dec.) | > 50 | 27.3 ± 1.2 | 26 ± 1 | 35.7 ± 1 | 0.7 | > 50 | <0.5 | – | – | – |
| Cc1nc(Cn2cc(COc3cc(=O)oc4ccc(F)cc34)nn2)cc2c1[nH]c1ccccc12 [5d, 6-Fluoro-4-((1-((1-methyl-9H-pyrido[3,4-b]indol-3-yl)methyl)-1H-1,2,3-triazol-4-yl)methoxy)-2H-chromen-2-one] | 259 to 261.5 °C (dec.) | > 50 | > 50 | 7 ± 1.6 | – | <0.1 | > 50 | <0.1 | – | – | – |
| Cc1nc(Cn2cc(COc3cc(=O)oc4ccccc34)nn2)cc2c1[nH]c1ccccc12 [5a, 4-((1-((1-Methyl-9H-pyrido[3,4-b]indol-3-yl)methyl)-1H-1,2,3-triazol-4-yl)methoxy)-2H-chromen-2-one] | 149.5 to 153.5 °C (dec.) | > 50 | 17.8 ± 1.8 | 6.5 ± 1.6 | > 50 | <0.1 | > 50 | <0.1 | – | – | – |
| O=c1[nH]cc(F)c(=O)[nH]1 [5-FU, 5-fluorouracil, reference compound] | – | 9.4 ± 0.3 | 5.5 ± 0.6 | 8.1 ± 0.8 | 23.9 ± 5.7 | 0.3 | 5.2 ± 2.8 | 1.6 | – | – | – |
| Cc1nccc2c1[nH]c1cc(OCc3cn(-c4cc(=O)oc5ccccc45)nn3)ccc12 [12a, 4-(4-(((1-Methyl-9H-pyrido[3,4-b]indol-7-yl)oxy)methyl)-1H-1,2,3-triazol-1-yl)-2H-chromen-2-one] | – | 30 ± 3.5 | 19.8 ± 1.1 | 14.7 ± 0.8 | 21.6 ± 3.7 | 0.7 | 10 ± 3.4 | 1.5 | – | – | – |

Further lines, with some results ahead:

| melting point | Structure (SMILES) | IC50 (SW620) [µM] | IC50 (HepG2) [µM] | IC50 (HEK293T) [µM] | IC50 (MCF-7) [µM] | SI (MCF-7) (MCF-7) | IC50 (HCT116) [µM] | SI (HCT116) (HCT116) | activity against MCF-7, fold stronger than 5-FU (MCF-7) | activity against MCF-7, fold higher than harmine (MCF-7) | SIs (selectivity towards cancer cells in comparison to HEK293T) (HEK293T; cancer cell line not specified (MCF-7 or HCT116)) |
| --- | --- | --- | --- | --- | --- | --- | --- | --- | --- | --- | --- |
| 239 to 243.5 °C (dec.) | COc1ccc2c3ccnc(C)c3n(Cc3cn(-c4cc(=O)oc5ccccc45)nn3)c2c1 [13a, 4-(4-((7-Methoxy-1-methyl-9H-pyrido[3,4-b]indol-9-yl)methyl)-1H-1,2,3-triazol-1-yl)-2H-chromen-2-one] | > 50 | 19.6 ± 1.3 | 12.4 ± 1.1 | 34 ± 2.1 | 0.4 | 3.4 ± 0.6 | 3.6 | – | – | – |
| 233 to 239.5 °C (dec.) | COc1ccc2c3ccnc(C)c3n(Cc3cn(-c4cc(=O)oc5ccc(Cl)cc45)nn3)c2c1 [13c, 6-Chloro-4-(4-((7-methoxy-1-methyl-9H-pyrido[3,4-b]indol-9-yl)methyl)-1H-1,2,3-triazol-1-yl)-2H-chromen-2-one] | > 50 | > 50 | > 50 | 32 ± 1.9 | >1.6 | 34.4 ± 3.3 | >1.5 | – | – | – |
| 235 to 237 °C (dec.) | COc1ccc2c3ccnc(C)c3n(Cc3cn(-c4cc(=O)oc5ccc(F)cc45)nn3)c2c1 [13d, 6-Fluoro-4-(4-((7-methoxy-1-methyl-9H-pyrido[3,4-b]indol-9-yl)methyl)-1H-1,2,3-triazol-1-yl)-2H-chromen-2-one] | 3.3 ± 0.4 | 3.1 ± 0.5 | 3.9 ± 0.3 | 2.7 ± 0.5 | 1.5 | 12.7 ± 0.6 | 0.3 | 9–13 fold | 5–7 fold | – |
| 253 to 255 °C (dec.) | COc1ccc2c3ccnc(C)c3n(Cc3cn(-c4cc(=O)oc5ccc(C)cc45)nn3)c2c1 [13b, 4-(4-((7-Methoxy-1-methyl-9H-pyrido[3,4-b]indol-9-yl)methyl)-1H-1,2,3-triazol-1-yl)-6-methyl-2H-chromen-2-one] | > 50 | > 50 | > 50 | > 50 | >1 | > 50 | >1 | – | – | – |
